Tests used:
Type in all cases: functional
[1] = target: T1, Interleukin-2 (Mus musculus) (UniProt P04351); experiment: Tested in vitro for inhibition of Interleukin-2 (IL-2) release; 100 times less active than cyclosporin A
T1 sequence (whole entry): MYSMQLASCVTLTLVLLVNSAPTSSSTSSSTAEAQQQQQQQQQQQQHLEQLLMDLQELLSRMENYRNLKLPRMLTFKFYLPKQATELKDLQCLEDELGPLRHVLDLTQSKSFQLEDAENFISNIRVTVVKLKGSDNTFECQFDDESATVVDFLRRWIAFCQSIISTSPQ

[2] = Tested in vitro for mixed Lymphocyte reaction; 100 times less active than cyclosporin A
[3] = target: T1, Interleukin-2 (Mus musculus); experiment: Tested in vitro for inhibition of Interleukin-2 (IL-2) release; 2-3 times less active than compound 1
[4] = Tested in vitro for mixed Lymphocyte reaction; 2-3 times less active than compound 1

Compound | Activity [1] | Activity [3] | Activity [2] | Activity [4]
CC[C@@H]1NC(=O)[C@H]([C@H](O)[C@H](C)C[C@@H]2C[C@H]2C)N(C)C(=O)[C@H](C(C)C)N(C)C(=O)[C@H](CC(C)C)N(C)C(=O)[C@H](CC(C)C)N(C)C(=O)[C@@H](C)NC(=O)[C@H](C)NC(=O)[C@H](CC(C)C)N(C)C(=O)[C@H](C(C)C)NC(=O)[C@H](CC(C)C)N(C)C(=O)CN(C)C1=O | – | 2-3 times less active than compound 1 | – | 2-3 times less active than compound 1
CC=C=CC[C@@H](C)[C@@H](O)[C@H]1C(=O)N[C@@H](CC)C(=O)N(C)CC(=O)N(C)[C@@H](CC(C)C)C(=O)N[C@@H](C(C)C)C(=O)N(C)[C@@H](CC(C)C)C(=O)N[C@@H](C)C(=O)N[C@H](C)C(=O)N(C)[C@@H](CC(C)C)C(=O)N(C)[C@@H](CC(C)C)C(=O)N(C)[C@@H](C(C)C)C(=O)N1C | – | 2-3 times less active than compound 1 | – | 2-3 times less active than compound 1
CC[C@@H]1NC(=O)[C@H]([C@H](O[Si](C)(C)C(C)(C)C)[C@H](C)C[C@H]2OC23CC3)N(C)C(=O)[C@H](C(C)C)N(C)C(=O)[C@H](CC(C)C)N(C)C(=O)[C@H](CC(C)C)N(C)C(=O)[C@@H](C)NC(=O)[C@H](C)NC(=O)[C@H](CC(C)C)N(C)C(=O)[C@H](C(C)C)NC(=O)[C@H](CC(C)C)N(C)C(=O)CN(C)C1=O | 100 times less active than cyclosporin A | – | 100 times less active than cyclosporin A | –

Further lines, with some results ahead:

Activity [1] | Activity [3] | Compound | Activity [2] | Activity [4]
100 times less active than cyclosporin A | – | CC[C@@H]1NC(=O)[C@H]([C@@H]2O[C@]3(O)CC[C@@H]3C[C@H]2C)N(C)C(=O)[C@H](C(C)C)N(C)C(=O)[C@H](CC(C)C)N(C)C(=O)[C@H](CC(C)C)N(C)C(=O)[C@@H](C)NC(=O)[C@H](C)NC(=O)[C@H](CC(C)C)N(C)C(=O)[C@H](C(C)C)NC(=O)[C@H](CC(C)C)N(C)C(=O)CN(C)C1=O | 100 times less active than cyclosporin A | –
100 times less active than cyclosporin A | – | CC[C@@H]1NC(=O)[C@H]([C@@H]2OC(C(C)=O)C[C@H]2C)N(C)C(=O)[C@H](C(C)C)N(C)C(=O)[C@H](CC(C)C)N(C)C(=O)[C@H](CC(C)C)N(C)C(=O)[C@@H](C)NC(=O)[C@H](C)NC(=O)[C@H](CC(C)C)N(C)C(=O)[C@H](C(C)C)NC(=O)[C@H](CC(C)C)N(C)C(=O)CN(C)C1=O (stereo not given in full) | 100 times less active than cyclosporin A | –

— ChEMBL document CHEMBL1128785, “Modifications of the MeBmt side chain of cyclosporin A” (Bioorg Med Chem Lett, 1995)
